Test results published in patent publication US20080176906A1, “Substituted Pyrrole Derivative” (Takeda Pharmaceutical Company Limited, priority 2004, published 2008).
Where a chain is given by its changes, count along the chain named.

How the values were obtained:
[1] = molecular target: T1, wild-type androgen receptor (AR) (Homo sapiens, UniProt P10275); assay: AR binding inhibitory test (wild type); conditions: 1 μM compound, 3 nM miboleron, 4° C. for 3 hours, dextran/charcoal B/F separation; read-out: Inhibitory rate (%) at 1 μM, Wild type
T1 sequence (P10275 1-920): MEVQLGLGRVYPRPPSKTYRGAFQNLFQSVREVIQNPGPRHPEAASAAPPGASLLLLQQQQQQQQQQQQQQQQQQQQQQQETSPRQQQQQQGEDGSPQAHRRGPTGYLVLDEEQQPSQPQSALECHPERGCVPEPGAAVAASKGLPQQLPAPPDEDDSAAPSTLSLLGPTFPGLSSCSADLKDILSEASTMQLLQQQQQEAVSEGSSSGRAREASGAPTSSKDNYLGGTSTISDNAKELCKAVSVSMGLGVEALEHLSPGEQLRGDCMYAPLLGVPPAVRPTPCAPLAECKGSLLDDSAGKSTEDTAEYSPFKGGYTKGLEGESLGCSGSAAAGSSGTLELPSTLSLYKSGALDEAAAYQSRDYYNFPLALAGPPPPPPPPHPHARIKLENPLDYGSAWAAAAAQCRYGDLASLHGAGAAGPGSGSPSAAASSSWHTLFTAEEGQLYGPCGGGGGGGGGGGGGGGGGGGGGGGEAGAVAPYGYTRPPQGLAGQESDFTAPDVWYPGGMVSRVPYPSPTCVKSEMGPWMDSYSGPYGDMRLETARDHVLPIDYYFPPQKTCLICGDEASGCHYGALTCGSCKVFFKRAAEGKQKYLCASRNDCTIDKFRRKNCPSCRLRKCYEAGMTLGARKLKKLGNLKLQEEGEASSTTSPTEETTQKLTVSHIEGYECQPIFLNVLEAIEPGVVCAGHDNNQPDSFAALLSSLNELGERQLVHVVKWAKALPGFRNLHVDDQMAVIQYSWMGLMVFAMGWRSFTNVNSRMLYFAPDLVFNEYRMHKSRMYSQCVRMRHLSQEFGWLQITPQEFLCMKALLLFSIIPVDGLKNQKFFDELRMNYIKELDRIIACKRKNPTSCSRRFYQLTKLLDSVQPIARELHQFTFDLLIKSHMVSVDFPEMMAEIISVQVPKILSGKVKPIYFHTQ
Protocol: (§1) 3 nM miboleron and 1 μM of a compound was added to a solution containing a wild-type androgen receptor (AR) or an androgen receptor (AR) having a LNCaP type mutation, this was incubated at 4° C. for 3 hours, and B(Bound)/F(Free) separation was performed by a dextran/charcoal method. A label count of B was measured, and an inhibition rate of the compound was calculated.

[2] = molecular target: T2, androgen receptor (AR) having a LNCaP type mutation (Homo sapiens, UniProt P10275, T878A); assay: AR binding inhibitory test (LNCaP type); conditions: 1 μM compound, 3 nM miboleron, 4° C. for 3 hours, dextran/charcoal B/F separation; read-out: Inhibitory rate (%) at 1 μM, LNCaP type
T2 sequence (P10275 1-920 T878A): T1 sequence (P10275 1-920) with T878A
Protocol: as §1

[3] = tested on: human prostate cancer cell LNCaP-FGC; assay: Prostate specific antigen (PSA) production inhibition in prostate cancer cell; format: cell-based; conditions: 72 h, 1 μM compound, testosterone 1 ng/mL, three days, PSA in culture supernatant by ELISA, testosterone non-added group 100%, testosterone-added group 0%, read-out: PSA production Inhibitory rate (%) at 1 μM
Protocol: A human prostate cancer cell LNCaP-FGC was inoculated on a 96-well plate at 5000 cells/100 μL/well and, on the next day, testosterone having the final concentration of 1 ng/mL and 1 μM of a compound were added. Three days after addition, the PSA concentration in the culture supernatant was measured by ELISA, and a PSA production inhibition rate was calculated, letting the rate of a testosterone non-added group to be 100%, and letting the rate of a testosterone-added group to be 0%.

mutated AR (W741C) = molecular target: T3, mutated AR (W741C) (Homo sapiens, UniProt P10275, W742C); assay: AR transcription inhibition test (luciferase reporter in Cos-7); format: cell-based; conditions: 0.1 μM compound, DHT 0.04 μM, 24 hours, luciferase activity, relative to a control
T3 construct: expressed in transfected cells; host or cells: Cos-7
T3 sequence (P10275 1-920 W742C): T1 sequence (P10275 1-920) with W742C
Protocol: 5,000,000 Cells of Cos-7 was inoculated on a flask, and cultured in a culturing solution (DMEM+10% Dextran Charcoal (DCC)-Fetal Bovine Serum (FBS)+2 mM glutamine) for 24 hours, and a vector DNA in which mutated AR (W741C) had been inserted, and a vector DNA in which a luciferase gene had been connected downstream of an androgen-responsive promoter were transfected by a liposome method. After two hours, the medium was exchanged, the cells were cultured for 3 hours, DHT (dihydrotestosterone) having the final concentration of 0.04 μM and an assessment compound having the final concentration of 0.1 μM were added, and the cells were cultured for 24 hours, and luciferase activity was measured to investigate AR transcription inhibition activity of the assessment compound.

mouse prostate = assay: Test of reduction in weight of mouse prostate; format: in vivo; conditions: 8 week old male mouse, drug non-addition 0%, castration 100%
From the text: A rate of reduction in a prostate weight is shown in Table 5, letting at drug non-addition to be 0%, and letting at castration to be 100%.

inhibition at 1 µM [1] [%]	inhibition at 1 µM [2] [%]	AR transcription Inhibitory rate (%) at 0.1 μM (mutated AR (W741C)) [%]	Structure (SMILES)	inhibition at 1 µM [3] [%]	Reduction rate (%) of prostate weight (mouse prostate; orally 50 mg/kg/day for 7 days) [%]	Reduction rate (%) of prostate weight (mouse prostate; orally 100 mg/kg/day (bicalutamide) for 7 days) [%]
99	94	30	CCc1c(C#N)c(-c2ccc(C#N)cc2)c(C)n1Cc1cnc(Cl)c(CO)c1 [Compound 2, 1-{[6-Chloro-5-(hydroxymethyl)pyridin-3-yl]methyl}-4-(4-cyanophenyl)-2-ethyl-5-methyl-1H-pyrrole-3-carbonitrile]	95	–	–
96	99	78	CCCc1c(C#N)c(-c2ccc(C#N)cc2)c(C)n1Cc1cnc(Cl)c(CO)c1 [Compound 3, 1-{[6-Chloro-5-(hydroxymethyl)pyridin-3-yl]methyl}-4-(4-cyanophenyl)-5-methyl-2-propyl-1H-pyrrole-3-carbonitrile]	99	–	–
98	96	78	Cc1c(-c2ccc(C#N)cc2)c(C#N)c(C2CC2)n1Cc1cnc(Cl)c(CO)c1 [Compound 5, 1-{[6-Chloro-5-(hydroxymethyl)pyridin-3-yl]methyl}-4-(4-cyanophenyl)-2-cyclopropyl-5-methyl-1H-pyrrole-3-carbonitrile]	99	–	–
–	–	–	Cc1c(C#N)c(-c2cccc(C#N)c2)c(C)n1Cc1cnc(Cl)c(CO)c1 [Compound 7, 1-{[6-Chloro-5-(hydroxymethyl)pyridin-3-yl]methyl}-4-(3-cyanophenyl)-2,5-dimethyl-1H-pyrrole-3-carbonitrile]	94	–	–
98	93	53	Cc1c(C#N)c(-c2ccc(C#N)cc2)c(C)n1Cc1ccc(Cl)c(CO)c1 [Compound 26, 1-[4-Chloro-3-(hydroxymethyl)benzyl]-4-(4-cyanophenyl)-2,5-dimethyl-1H-pyrrole-3-carbonitrile]	97	–	–
–	–	–	Cc1c(C#N)c(-c2ccc(C#N)cc2)c(C)n1Cc1cnc(Cl)c(C(O)C(F)(F)F)c1 (stereo not drawn) [Example 38, 1-{[6-Chloro-5-(2,2,2-trifluoro-1-hydroxyethyl)pyridin-3-yl]methyl}-4-(4-cyanophenyl)-2,5-dimethyl-1H-pyrrole-3-carbonitrile]	94	68	–
86	89	–	Cc1cc(-c2ccc(C#N)cc2)c(C)n1Cc1cnc(Cl)c(CO)c1 [Example 46, 4-(1-{[6-Chloro-5-(hydroxymethyl)pyridin-3-yl]methyl}-2,5-dimethyl-1H-pyrrol-3-yl)benzonitrile]	95	–	–
50	81	–	CCc1cc(-c2ccc(C#N)cc2)c(C)n1Cc1cnc(Cl)c(CO)c1 [Example 47, 4-(1-{[6-Chloro-5-(hydroxymethyl)pyridin-3-yl]methyl}-5-ethyl-2-methyl-1H-pyrrol-3-yl)benzonitrile]	–	–	–
30	87	–	Cc1c(-c2ccc(C#N)cc2)cc(C2CC2)n1Cc1cnc(Cl)c(CO)c1 [Example 48, 4-(1-{[6-Chloro-5-(hydroxymethyl)pyridin-3-yl]methyl}-5-cyclopropyl-2-methyl-1H-pyrrol-3-yl)benzonitrile]	98	–	–
–	–	–	Cc1cc(-c2ccc(C#N)cc2)c(C#N)n1Cc1cnc(Cl)c(CO)c1 [Example 52, 1-{[6-Chloro-5-(hydroxymethyl)pyridin-3-yl]methyl}-3-(4-cyanophenyl)-5-methyl-1H-pyrrole-2-carbonitrile]	99	–	–
–	–	–	CC(O)(CS(=O)(=O)c1ccc(F)cc1)C(=O)Nc1ccc(C#N)c(C(F)(F)F)c1 (stereo not drawn) [bicalutamide, reference compound]	58	–	40
